ChEMBL document CHEMBL3734705, “Synthesis and in vitro cytotoxicity of novel C-12 substituted-14-deoxy-andrographolide derivatives as potent anti-cancer agents” (2015)

Key:
Assay type in all cases: functional
[1] = Cytotoxicity against human OVCAR4 cells after 48 hrs by SRB assay; settings: OVCAR-4, 48 h
[2] = Cytotoxicity against human UO31 cells after 48 hrs by SRB assay; settings: UO-31, 48 h
U-251 = test: Cytotoxicity against human U251 cells after 48 hrs by SRB assay; settings: U-251, 48 h
EKVX = test: Cytotoxicity against human EKVX cells after 48 hrs by SRB assay
MDA-MB-231 = test: Cytotoxicity against human MDA-MB-231 cells after 48 hrs by SRB assay; settings: MDA-MB-231, 48 h
T47D = test: Cytotoxicity against human T47D cells after 48 hrs by SRB assay
[3] = Cytotoxicity against human HL-60(TB) cells after 48 hrs by SRB assay; settings: HL-60, 48 h
[4] = Cytotoxicity against human HOP92 cells after 48 hrs by SRB assay; settings: HOP-92, 48 h
[5] = Cytotoxicity against human NCI-ADR-RES cells after 48 hrs by SRB assay
MCF7 = test: Cytotoxicity against human MCF7 cells after 48 hrs by SRB assay; settings: MCF7, 48 h
MDA-MB-468 = test: Cytotoxicity against human MDA-MB-468 cells after 48 hrs by SRB assay; settings: MDA-MB-468, 48 h
KM12 = test: Cytotoxicity against human KM12 cells after 48 hrs by SRB assay; settings: KM12, 48 h
NCI-H226 = test: Cytotoxicity against human NCI-H226 cells after 48 hrs by SRB assay; settings: NCI-H226, 48 h
[6] = Cytotoxicity against human SF268 cells after 48 hrs by SRB assay; settings: SF-268, 48 h
[7] = Cytotoxicity against human IGROV1 cells after 48 hrs by SRB assay; settings: IGROV-1, 48 h
SK-MEL-2 [8] = test: Cytotoxicity against human SK-MEL-2 cells assessed as growth level at 10 uM after 48 hrs by SRB assay
[9] = Cytotoxicity against human HOP62 cells after 48 hrs by SRB assay; settings: HOP-62, 48 h
[10] = Cytotoxicity against human OVCAR3 cells after 48 hrs by SRB assay; settings: OVCAR-3, 48 h
SK-MEL-28 = test: Cytotoxicity against human SK-MEL-28 cells after 48 hrs by SRB assay; settings: SK-MEL-28, 48 h
[11] = Cytotoxicity against human SKOV3 cells after 48 hrs by SRB assay; settings: SK-OV-3, 48 h
[12] = Cytotoxicity against human HCC2998 cells after 48 hrs by SRB assay; settings: HCC 2998, 48 h
[13] = Cytotoxicity against human BT549 cells after 48 hrs by SRB assay; settings: BT-549, 48 h
HT-29 = test: Cytotoxicity against human HT-29 cells after 48 hrs by SRB assay; settings: HT-29, 48 h
SK-MEL-2 [14] = test: Cytotoxicity against human SK-MEL-2 cells after 48 hrs by SRB assay; settings: SK-MEL-2, 48 h
[15] = Cytotoxicity against human HCT15 cells after 48 hrs by SRB assay; settings: HCT-15, 48 h
[16] = Cytotoxicity against human SF295 cells after 48 hrs by SRB assay; settings: SF-295, 48 h
786-0 = test: Cytotoxicity against human 786-0 cells after 48 hrs by SRB assay; settings: 786-0, 48 h
[17] = Cytotoxicity against human OVCAR5 cells after 48 hrs by SRB assay; settings: OVCAR-5, 48 h
[18] = Cytotoxicity against human DU145 cells after 48 hrs by SRB assay; settings: DU-145, 48 h
[19] = Cytotoxicity against human Caki1 cells after 48 hrs by SRB assay; settings: CAKI-1, 48 h
NCI-H23 = test: Cytotoxicity against human NCI-H23 cells after 48 hrs by SRB assay; settings: NCI-H23, 48 h
[20] = Cytotoxicity against human LOXIMVI cells after 48 hrs by SRB assay; settings: LOX IMVI
[21] = Cytotoxicity against human RXF393 cells after 48 hrs by SRB assay; settings: RXF 393, 48 h
NCI-H460 = test: Cytotoxicity against human NCI-H460 cells after 48 hrs by SRB assay; settings: NCI-H460, 48 h
[22] = Cytotoxicity against human TK10 cells after 48 hrs by SRB assay; settings: TK-10, 48 h
[23] = read-out: LC50 (the source's name)

With `C=C1CC[C@@H]2[C@](C)(COC(C)=O)[C@H](OC(C)=O)CC[C@@]2(C)[C@@H]1CC(Sc1ccccc1)C1=CCOC1=O` (mixture of isomers) as the compound, how does the GI50 [1] read?
Its GI50 is 1.36 µM.

And the TGI [1]?
The TGI was 3.11 µM.

And the CC50 [1, 23]?
Its CC50 is 7.12 µM.

And the GI50 [2]?
Its GI50 is 1.2 µM.

And the LC50 (concentration killing 50% of cells) [2]?
Its LC50 (concentration killing 50% of cells) is 5.33 µM.

And the TGI [2]?
Its TGI is 2.53 µM.

And the GI50 (U-251)?
The GI50 was 1.56 µM.

What about the LC50 (concentration giving 50% net cell kill) (U-251) of the same compound?
The LC50 (concentration giving 50% net cell kill) was 5.62 µM.

And the TGI (U-251)?
Its TGI is 2.96 µM.

What about the GI50 (EKVX) of the same compound?
The GI50 was 2.43 µM.

What about the LC50 (EKVX) of the same compound?
Its LC50 is over 100 µM.

And the TGI (EKVX)?
Its TGI is 10.4 µM.

And the GI50 (MDA-MB-231)?
The GI50 was 2.47 µM.

What about the LC50 (MDA-MB-231) of the same compound?
Its LC50 is over 100 µM.

What about the TGI (MDA-MB-231) of the same compound?
The TGI was 6.29 µM.

And the GI50 (T47D)?
The GI50 was 2.01 µM.

And the LC50 (concentration killing 50% of cells) (T47D)?
The LC50 (concentration killing 50% of cells) was over 100 µM.

And the TGI (T47D)?
The TGI was 8.32 µM.

What about the GI50 [3] of the same compound?
The GI50 was 0.49 µM.

What about the TGI [3] of the same compound?
Its TGI is 2.27 µM.

What about the CC50 [3, 23] of the same compound?
Its CC50 is 9.76 µM.

And the GI50 [4]?
The GI50 was 2.71 µM.

What about the LC50 [4] of the same compound?
Its LC50 is over 100 µM.

And the TGI [4]?
The TGI was 8.71 µM.

And the GI50 [5]?
Its GI50 is 2.1 µM.

And the LC50 [5]?
Its LC50 is over 100 µM.

And the TGI [5]?
Its TGI is 11 µM.

What about the GI50 (MCF7) of the same compound?
Its GI50 is 0.53 µM.

And the LC50 (50% lethal concentration) (MCF7)?
Its LC50 (50% lethal concentration) is 7.27 µM.

What about the TGI (MCF7) of the same compound?
Its TGI is 2.35 µM.

And the GI50 (MDA-MB-468)?
The GI50 was 1.41 µM.

What about the LC50 (MDA-MB-468) of the same compound?
The LC50 was 7.53 µM.

And the TGI (MDA-MB-468)?
Its TGI is 3.26 µM.

And the GI50 (KM12)?
Its GI50 is 1.4 µM.

What about the LC50 (KM12) of the same compound?
Its LC50 is 6.25 µM.

What about the TGI (KM12) of the same compound?
The TGI was 2.96 µM.

And the GI50 (NCI-H226)?
The GI50 was 2.3 µM.

And the LC50 (NCI-H226)?
The LC50 was 39.4 µM.

And the TGI (NCI-H226)?
The TGI was 5.98 µM.

What about the GI50 [6] of the same compound?
The GI50 was 1.71 µM.

What about the LC50 [6] of the same compound?
Its LC50 is 7.39 µM.

What about the TGI [6] of the same compound?
The TGI was 3.55 µM.

What about the GI50 [7] of the same compound?
The GI50 was 1.87 µM.

And the TGI [7]?
Its TGI is 4.28 µM.

And the Activity (SK-MEL-2 [8])?
Its Activity is -1.66%.

What about the GI50 [9] of the same compound?
The GI50 was 2.89 µM.

What about the LC50 [9] of the same compound?
Its LC50 is 14.7 µM.

And the TGI [9]?
Its TGI is 5.53 µM.

And the GI50 [10]?
Its GI50 is 1.14 µM.

What about the LC50 (concentration killing 50% of cells) [10] of the same compound?
Its LC50 (concentration killing 50% of cells) is 4.92 µM.

And the TGI [10]?
The TGI was 2.37 µM.

What about the GI50 (SK-MEL-28) of the same compound?
Its GI50 is 1.62 µM.

And the LC50 (lethal concentration 50%) (SK-MEL-28)?
The LC50 (lethal concentration 50%) was 6.68 µM.

What about the TGI (SK-MEL-28) of the same compound?
Its TGI is 3.29 µM.

What about the GI50 [11] of the same compound?
The GI50 was 4.44 µM.

What about the TGI [11] of the same compound?
Its TGI is 16.8 µM.

And the CC50 [11, 23]?
Its CC50 is over 100 µM.

And the GI50 [12]?
The GI50 was 2.1 µM.

And the LC50 [12]?
The LC50 was 7.89 µM.

And the TGI [12]?
Its TGI is 4.08 µM.

What about the GI50 [13] of the same compound?
The GI50 was 1.59 µM.

What about the TGI [13] of the same compound?
The TGI was 3.99 µM.

What about the CC50 [13, 23] of the same compound?
The CC50 was over 100 µM.

What about the GI50 (HT-29) of the same compound?
The GI50 was 1.77 µM.

And the LC50 (HT-29)?
Its LC50 is 8.03 µM.

What about the TGI (HT-29) of the same compound?
Its TGI is 3.77 µM.

What about the GI50 (SK-MEL-2 [14]) of the same compound?
Its GI50 is 2.25 µM.

What about the LC50 (concentration causing 50% net cell kill) (SK-MEL-2 [14]) of the same compound?
The LC50 (concentration causing 50% net cell kill) was 9.36 µM.

What about the TGI (SK-MEL-2 [14]) of the same compound?
Its TGI is 4.59 µM.

And the GI50 [15]?
Its GI50 is 0.87 µM.

What about the LC50 [15] of the same compound?
The LC50 was 6.98 µM.

And the TGI [15]?
Its TGI is 2.59 µM.

What about the GI50 [16] of the same compound?
The GI50 was 4.12 µM.

And the LC50 [16]?
The LC50 was over 100 µM.

And the TGI [16]?
The TGI was 27.3 µM.

What about the GI50 (786-0) of the same compound?
Its GI50 is 1.9 µM.

What about the LC50 (786-0) of the same compound?
Its LC50 is 6.96 µM.

And the TGI (786-0)?
The TGI was 3.64 µM.

And the GI50 [17]?
Its GI50 is 2.46 µM.

And the LC50 (concentration causing 50% net cell kill) [17]?
The LC50 (concentration causing 50% net cell kill) was 8.89 µM.

What about the TGI [17] of the same compound?
The TGI was 4.67 µM.

And the GI50 [18]?
The GI50 was 1.41 µM.

And the LC50 (concentration killing 50% of cells) [18]?
The LC50 (concentration killing 50% of cells) was 5.33 µM.

And the TGI [18]?
The TGI was 2.74 µM.

What about the GI50 [19] of the same compound?
Its GI50 is 2.77 µM.

What about the LC50 [19] of the same compound?
Its LC50 is over 100 µM.

And the TGI [19]?
The TGI was 11.5 µM.

What about the GI50 (NCI-H23) of the same compound?
The GI50 was 1.78 µM.

And the LC50 (NCI-H23)?
Its LC50 is 7.57 µM.

And the TGI (NCI-H23)?
The TGI was 3.67 µM.

What about the GI50 [20] of the same compound?
The GI50 was 0.29 µM.

And the LC50 [20]?
Its LC50 is 3.97 µM.

What about the TGI [20] of the same compound?
The TGI was 1.19 µM.

What about the GI50 [21] of the same compound?
The GI50 was 1.62 µM.

What about the LC50 (concentration causing 50% net cell kill) [21] of the same compound?
The LC50 (concentration causing 50% net cell kill) was 6.01 µM.

And the TGI [21]?
The TGI was 3.12 µM.

And the GI50 (NCI-H460)?
The GI50 was 2.24 µM.

What about the TGI (NCI-H460) of the same compound?
The TGI was 6.03 µM.

What about the CC50 (NCI-H460; [23]) of the same compound?
Its CC50 is over 100 µM.

What about the GI50 [22] of the same compound?
Its GI50 is 2.83 µM.

What about the LC50 [22] of the same compound?
Its LC50 is 13.4 µM.

What about the TGI [22] of the same compound?
Its TGI is 5.54 µM.
